Experimental findings from US12577245B2, “Sulfonyl benzamide derivatives as Bcl-2 inhibitors” (ASCENTAGE PHARMA (SUZHOU) CO., LTD., priority 2021, dated 2026) are described below.

In assay [1] the target is Bcl-2 WT (Homo sapiens, UniProt P10415). Nature of the assay: Bcl-2 WT inhibition, fluorescence polarization (Flu-BIM tracer) binding assay. As to conditions: FP; 20 nM Bcl2, 5 nM Flu-BIM, 1 h incubation; read-out: Bcl-2 w.t. (FP). (In general: In fluorescence polarisation assays a small probe gives low polarisation when free and higher when bound to something large.)
Chain of Bcl-2 WT (P10415 whole entry): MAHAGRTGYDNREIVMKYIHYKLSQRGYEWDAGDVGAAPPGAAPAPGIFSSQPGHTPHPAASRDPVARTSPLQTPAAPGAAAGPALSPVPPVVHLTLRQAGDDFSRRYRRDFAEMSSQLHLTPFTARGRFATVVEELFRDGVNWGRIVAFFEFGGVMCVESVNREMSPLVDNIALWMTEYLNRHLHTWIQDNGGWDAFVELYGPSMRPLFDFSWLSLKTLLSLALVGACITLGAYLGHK
Assay [2] deals with RS4; 11Bcl-2-G101V cells. Description: CellTiter-Glo (CTG) cell viability assay in RS4;11-Bcl-2-G101V cells. The settings on record: 72 h, 10% FBS, 3 days. It counts as cell-based. Summed up:
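Luminescent ATP read-out (CellTiter-Glo) after 3-day compound treatment at 37 °C gave viability relative to vehicle, from which IC50 was fitted. Mutant Bcl-2 RS4;11 cells were seeded at 10000 per well and rested 4 h before dosing.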
For orientation: In ATP-based viability assays light output follows the ATP content of the culture.

Assay [3] has as its system MV-4-11 cells. Description: CCK-8 cell viability assay in MV-4-11 cells. It counts as cell-based. The settings on record: Homo sapiens, MV4-11, 72 h, 10% FBS, 3 days. In outline: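 IC50 values come from vehicle-normalized CCK-8 absorbance at 450 nm, read 1–4 h after reagent addition. Before that, MV-4-11 cells seeded at 20000 per well were cultured 3 days at 37 °C with a compound dilution series.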

Structures are written as SMILES.

Take `CC1(C)CCC(CN2CCN(c3ccc(C(=O)NS(=O)(=O)c4ccc(NC[C@H]5CC[C@](C)(O)CC5)c([N+](=O)[O-])c4)c(Oc4cnc5[nH]ccc5c4)c3)CC2)=C(c2cc(-c3ccc(F)c(F)c3F)cs2)C1` [Example 46, 2-((1H-pyrrolo[2,3-b]pyridin-5-yl)oxy)-4-(4-((4,4-dimethyl-2-(4-(2,3,4-trifluorophenyl)thiophen-2-yl)cyclohex-1-en-1-yl)methyl)piperazin-1-yl)-N-((4-((((1r,4r)-4-hydroxy-4-methylcyclohexyl)methyl)amino)-3-nitrophenyl)sulfonyl)benzamide]: the IC50 in assay [1] was found to be 22.5 nM; in assay [2], 230 nM; in assay [3], 9 nM.
For `CC1(C)CCC(CN2CCN(c3ccc(C(=O)NS(=O)(=O)c4ccc(NC[C@H]5CC[C@](C)(O)CC5)c([N+](=O)[O-])c4)c(Oc4cnc5[nH]ccc5c4)c3)CC2)=C(c2cc(-c3ccc(C(O)(C(F)(F)F)C(F)(F)F)cc3)cs2)C1` [Example 60, 2-((1H-pyrrolo[2,3-b]pyridin-5-yl)oxy)-4-(4-((2-(4-(4-(1,1,1,3,3,3-hexafluoro-2-hydroxypropan-2-yl)phenyl)thiophen-2-yl)-4,4-dimethylcyclohex-1-en-1-yl)methyl)piperazin-1-yl)-N-((4-((((1r,4r)-4-hydroxy-4-methylcyclohexyl)methyl)amino)-3-nitrophenyl)sulfonyl)benzamide], the IC50 in assay [1] was 20.4 nM; in assay [2] it was 3410 nM; in assay [3], 303 nM.
For `Cc1sc(C2=C(CN3CCN(c4ccc(C(=O)NS(=O)(=O)c5ccc(NC[C@H]6CC[C@](C)(O)CC6)c([N+](=O)[O-])c5)c(Oc5cnc6[nH]ccc6c5)c4)CC3)CCC(C)(C)C2)cc1-c1c(F)cc(C(C)(C)O)cc1F` [Example 81, 2-((1H-pyrrolo[2,3-b]pyridin-5-yl)oxy)-4-(4-((2-(4-(2,6-difluoro-4-(2-hydroxypropan-2-yl)phenyl)-5-methylthiophen-2-yl)-4,4-dimethylcyclohex-1-en-1-yl)methyl)piperazin-1-yl)-N-((4-((((1r,4r)-4-hydroxy-4-methylcyclohexyl)methyl)amino)-3-nitrophenyl)sulfonyl)benzamide], the IC50 in assay [1] turned out to be 34.6 nM; in assay [2], 1710 nM; in assay [3] it was 270 nM.
For `CC1(C)CCC(CN2CCN(c3ccc(C(=O)NS(=O)(=O)c4ccc(NC[C@H]5CC[C@](C)(O)CC5)c([N+](=O)[O-])c4)c(Oc4cnc5[nH]ccc5c4)c3)CC2)=C(c2cc(-c3ccc(C(C)(C)C#N)cc3)cs2)C1` [Example 56, 2-((1H-pyrrolo[2,3-b]pyridin-5-yl)oxy)-4-(4-((2-(4-(4-(2-cyanopropan-2-yl)phenyl)thiophen-2-yl)-4,4-dimethylcyclohex-1-en-1-yl)methyl)piperazin-1-yl)-N-((4-((((1r,4r)-4-hydroxy-4-methylcyclohexyl)methyl)amino)-3-nitrophenyl)sulfonyl)benzamide], the IC50 turned out to be 16.1 nM in assay [1], 1910 nM in assay [2] and 68 nM in assay [3].
`CC(C)c1csc(C2=C(CN3CCN(c4ccc(C(=O)NS(=O)(=O)c5ccc(NC[C@H]6COCCO6)c([N+](=O)[O-])c5)c(Oc5cnc6[nH]ccc6c5)c4)CC3)CCC(C)(C)C2)c1` [Example 10, (S)—N-((4-(((1,4-dioxan-2-yl)methyl)amino)-3-nitrophenyl)sulfonyl)-2-((1H-pyrrolo[2,3-b]pyridin-5-yl)oxy)-4-(4-((2-(4-isopropylthiophen-2-yl)-4,4-dimethylcyclohex-1-en-1-yl)methyl)piperazin-1-yl)benzamide]: the IC50 in assay [1] is 20.3 nM; in assay [2], 1040 nM; in assay [3], 16 nM.
Taken in the same sequence, the figures for `CC1(C)CCC(CN2CCN(c3ccc(C(=O)NS(=O)(=O)c4ccc(NCC5CCOCC5)c([N+](=O)[O-])c4)c(Oc4cnc5[nH]ccc5c4)c3)CC2)=C(c2ccsc2-c2ccccc2)C1` [Example 35, 2-((1H-pyrrolo[2,3-b]pyridin-5-yl)oxy)-4-(4-((4,4-dimethyl-2-(2-phenylthiophen-3-yl)cyclohex-1-en-1-yl)methyl)piperazin-1-yl)-N-((3-nitro-4-(((tetrahydro-2H-pyran-4-yl)methyl)amino)phenyl)sulfonyl)benzamide] were 40.4 nM, 6160 nM and 799 nM.
Consider `CC1(C)CCC(CN2CCN(c3ccc(C(=O)NS(=O)(=O)c4ccc(NC[C@H]5COCCO5)c([N+](=O)[O-])c4)c(Oc4cnc5[nH]ccc5c4)c3)CC2)=C(c2cc(-c3ccc(F)cc3)cs2)C1` [Example 33, (S)—N-((4-(((1,4-dioxan-2-yl)methyl)amino)-3-nitrophenyl)sulfonyl)-2-((1H-pyrrolo[2,3-b]pyridin-5-yl)oxy)-4-(4-((2-(4-(4-fluorophenyl)thiophen-2-yl)-4,4-dimethylcyclohex-1-en-1-yl)methyl)piperazin-1-yl)benzamide], for which the IC50 in assay [1] came to 23.9 nM; in assay [2], 630 nM; in assay [3] it was 6 nM.
Taken in the same sequence, the figures for `CC1(C)CCC(CN2CCN(c3ccc(C(=O)NS(=O)(=O)c4ccc(NCC5CCOCC5)c([N+](=O)[O-])c4)c(Oc4cnc5[nH]ccc5c4)c3)CC2)=C(c2ccc(CN3CCOCC3)s2)C1` [Example 26, 2-((1H-pyrrolo[2,3-b]pyridin-5-yl)oxy)-4-(4-((4,4-dimethyl-2-(5-(morpholinomethyl)thiophen-2-yl)cyclohex-1-en-1-yl)methyl)piperazin-1-yl)-N-((3-nitro-4-(((tetrahydro-2H-pyran-4-yl)methyl)amino)phenyl)sulfonyl)benzamide] were 26.4 nM, 2590 nM and 246 nM.
In the same order, the values of `CC1(C)CCC(CN2CCN(c3ccc(C(=O)NS(=O)(=O)c4ccc(NC[C@H]5CC[C@](C)(O)CC5)c([N+](=O)[O-])c4)c(Oc4cnc5[nH]ccc5c4)c3)CC2)=C(c2cc(-c3ccc(F)c(F)c3)cs2)C1` [Example 51, 2-((1H-pyrrolo[2,3-b]pyridin-5-yl)oxy)-4-(4-((2-(4-(3,4-difluorophenyl)thiophen-2-yl)-4,4-dimethylcyclohex-1-en-1-yl)methyl)piperazin-1-yl)-N-((4-((((1r,4r)-4-hydroxy-4-methylcyclohexyl)methyl)amino)-3-nitrophenyl)sulfonyl)benzamide] are 35.5 nM, 1140 nM and 52 nM.
In the same order, the values of `CC1(C)CCC(CN2CCN(c3ccc(C(=O)NS(=O)(=O)c4ccc(NC[C@H]5COCCO5)c([N+](=O)[O-])c4)c(Oc4cnc5[nH]ccc5c4)c3)CC2)=C(c2cc(CN3CCOCC3)cs2)C1` [Example 22, (S)—N-((4-(((1,4-dioxan-2-yl)methyl)amino)-3-nitrophenyl)sulfonyl)-2-((1H-pyrrolo[2,3-b]pyridin-5-yl)oxy)-4-(4-((4,4-dimethyl-2-(4-(morpholinomethyl)thiophen-2-yl)cyclohex-1-en-1-yl)methyl)piperazin-1-yl)benzamide] are 25.4 nM, 440 nM and 83 nM.
